{
  "source": "paper PMC7176092",
  "about": "“Development of the first in vivo GPR17 ligand through an iterative drug discovery pipeline: A novel disease-modifying strategy for multiple sclerosis” (PLoS ONE, 2020)",
  "key": {"ADR2B": {"target": "T1, ADR2B (Homo sapiens, UniProt P18089)", "T1 construct": "Eurofins Cerep (external service)", "T1 sequence (P18089 1-450)": "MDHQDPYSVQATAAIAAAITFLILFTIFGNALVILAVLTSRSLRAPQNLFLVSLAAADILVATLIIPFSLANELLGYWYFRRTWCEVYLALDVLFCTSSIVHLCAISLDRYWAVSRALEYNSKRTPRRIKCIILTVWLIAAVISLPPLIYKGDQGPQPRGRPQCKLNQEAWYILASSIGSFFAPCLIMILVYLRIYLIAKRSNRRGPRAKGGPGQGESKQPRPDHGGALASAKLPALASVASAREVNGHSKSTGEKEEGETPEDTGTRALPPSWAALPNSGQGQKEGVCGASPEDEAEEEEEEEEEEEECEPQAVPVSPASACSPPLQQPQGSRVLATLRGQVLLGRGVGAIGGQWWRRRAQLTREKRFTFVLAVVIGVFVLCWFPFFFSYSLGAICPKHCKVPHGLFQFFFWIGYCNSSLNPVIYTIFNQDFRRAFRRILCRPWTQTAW", "test": "Binding assay ADR2B", "conditions": "100 nM"}, "ADR3": {"target": "T2, ADR3 (Homo sapiens, UniProt P13945)", "T2 construct": "Eurofins Cerep (external service)", "T2 sequence (P13945 whole entry)": "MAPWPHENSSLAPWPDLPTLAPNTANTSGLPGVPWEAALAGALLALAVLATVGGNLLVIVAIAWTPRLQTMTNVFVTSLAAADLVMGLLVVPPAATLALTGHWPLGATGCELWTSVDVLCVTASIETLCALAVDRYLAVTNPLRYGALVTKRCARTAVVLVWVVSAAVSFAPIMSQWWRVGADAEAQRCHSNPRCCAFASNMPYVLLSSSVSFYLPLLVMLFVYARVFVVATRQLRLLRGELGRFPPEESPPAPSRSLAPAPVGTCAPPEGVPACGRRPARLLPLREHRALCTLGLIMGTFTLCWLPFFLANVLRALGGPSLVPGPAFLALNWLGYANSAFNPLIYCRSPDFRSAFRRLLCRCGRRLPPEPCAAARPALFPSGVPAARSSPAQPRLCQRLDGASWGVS", "test": "Binding assay ADR3 (reference Alprenolol)", "conditions": "100 nM"}, "APJ": {"target": "T3, APJ (Homo sapiens, UniProt P35414)", "T3 construct": "Eurofins Cerep (external service)", "T3 sequence (P35414 1-380)": "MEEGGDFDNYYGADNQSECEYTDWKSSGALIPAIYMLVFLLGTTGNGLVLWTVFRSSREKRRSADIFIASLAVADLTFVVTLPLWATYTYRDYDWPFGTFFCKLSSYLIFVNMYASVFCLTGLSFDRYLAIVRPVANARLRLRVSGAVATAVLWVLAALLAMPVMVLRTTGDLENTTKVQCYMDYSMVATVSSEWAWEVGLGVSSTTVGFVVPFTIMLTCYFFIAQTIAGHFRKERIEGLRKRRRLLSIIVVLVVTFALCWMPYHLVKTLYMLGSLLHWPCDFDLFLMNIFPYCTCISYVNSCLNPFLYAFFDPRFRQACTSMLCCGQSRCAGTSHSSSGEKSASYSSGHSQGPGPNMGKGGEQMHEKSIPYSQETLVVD", "test": "Binding assay APJ", "conditions": "100 nM"}, "CCR1": {"target": "T4, CCR1 (Homo sapiens, UniProt P32246)", "T4 construct": "Eurofins Cerep (external service)", "T4 sequence (P32246 1-355)": "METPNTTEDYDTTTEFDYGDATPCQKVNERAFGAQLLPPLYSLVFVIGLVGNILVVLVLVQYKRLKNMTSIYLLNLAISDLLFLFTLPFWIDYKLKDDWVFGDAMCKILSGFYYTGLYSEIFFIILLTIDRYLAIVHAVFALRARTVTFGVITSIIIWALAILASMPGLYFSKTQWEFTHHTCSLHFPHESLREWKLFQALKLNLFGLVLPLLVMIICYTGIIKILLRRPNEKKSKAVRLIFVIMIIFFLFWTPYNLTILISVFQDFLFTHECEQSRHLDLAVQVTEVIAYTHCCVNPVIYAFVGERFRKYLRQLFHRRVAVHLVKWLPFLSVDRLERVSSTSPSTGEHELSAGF", "test": "Binding assay CCR1", "conditions": "100 nM"}, "M5": {"target": "T5, M5 (Homo sapiens, UniProt P08912)", "T5 construct": "Eurofins Cerep (external service)", "T5 sequence (P08912 1-532)": "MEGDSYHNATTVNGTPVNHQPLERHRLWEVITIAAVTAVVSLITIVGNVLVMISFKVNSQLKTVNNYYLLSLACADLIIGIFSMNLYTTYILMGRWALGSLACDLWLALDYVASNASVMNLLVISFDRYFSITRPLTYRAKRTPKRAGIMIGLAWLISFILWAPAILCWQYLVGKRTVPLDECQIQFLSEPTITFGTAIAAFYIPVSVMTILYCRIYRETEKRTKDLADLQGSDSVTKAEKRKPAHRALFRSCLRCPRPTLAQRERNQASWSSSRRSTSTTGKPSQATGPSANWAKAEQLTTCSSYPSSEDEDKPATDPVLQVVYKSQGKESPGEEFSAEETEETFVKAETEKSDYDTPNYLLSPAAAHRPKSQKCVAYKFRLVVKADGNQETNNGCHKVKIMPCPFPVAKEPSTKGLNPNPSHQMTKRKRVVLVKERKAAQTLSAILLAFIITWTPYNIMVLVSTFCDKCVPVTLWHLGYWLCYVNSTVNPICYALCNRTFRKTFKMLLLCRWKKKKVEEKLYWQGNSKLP", "test": "Binding assay M5", "conditions": "100 nM"}, "CXCR5": {"target": "T6, CXCR5 (Homo sapiens, UniProt P32302)", "T6 sequence (P32302 1-372)": "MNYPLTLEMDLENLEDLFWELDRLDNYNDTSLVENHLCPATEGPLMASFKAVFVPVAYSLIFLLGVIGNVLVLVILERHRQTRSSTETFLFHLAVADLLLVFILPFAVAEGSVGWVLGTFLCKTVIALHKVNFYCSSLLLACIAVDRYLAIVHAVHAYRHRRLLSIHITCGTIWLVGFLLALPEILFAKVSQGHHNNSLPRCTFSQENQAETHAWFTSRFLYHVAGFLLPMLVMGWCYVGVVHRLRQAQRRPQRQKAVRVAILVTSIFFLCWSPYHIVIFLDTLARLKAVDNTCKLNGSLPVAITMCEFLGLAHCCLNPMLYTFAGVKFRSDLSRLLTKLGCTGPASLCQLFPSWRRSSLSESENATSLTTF", "test": "Cellular functional assay CXCR5"}, "CXCR6": {"target": "CXCR6 (Homo sapiens, UniProt O00574)", "sequence (O00574 whole entry)": "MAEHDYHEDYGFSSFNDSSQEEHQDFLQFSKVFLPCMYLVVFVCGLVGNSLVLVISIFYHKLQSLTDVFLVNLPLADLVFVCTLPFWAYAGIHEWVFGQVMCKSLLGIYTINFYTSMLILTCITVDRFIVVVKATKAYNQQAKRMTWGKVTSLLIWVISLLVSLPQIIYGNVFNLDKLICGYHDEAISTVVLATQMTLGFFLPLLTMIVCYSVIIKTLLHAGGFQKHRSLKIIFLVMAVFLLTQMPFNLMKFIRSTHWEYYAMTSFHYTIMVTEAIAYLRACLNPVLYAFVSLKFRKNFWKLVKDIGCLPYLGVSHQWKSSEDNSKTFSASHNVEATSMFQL", "test": "Cellular functional assay CXCR6"}, "[1]": {"conditions": "mean of 2, read-out: % Of control specific binding, Mean"}, "[2]": {"conditions": "read-out: % Inhibition of control specific binding"}, "[3]": {"conditions": "single replicates 1 and 2, 0.1 µM"}, "[4]": {"conditions": "single replicates 1 and 2, read-out: % Of control specific binding"}, "[5]": {"conditions": "antagonist effect, 100 nM, single replicates 1st and 2nd, 0.1 µM"}, "[6]": {"conditions": "read-out: % Inhibition of control agonist response"}, "[7]": {"conditions": "read-out: Agonist Response (% of Control), Mean, antagonist effect, 100 nM, mean of 2"}, "[8]": {"conditions": "read-out: Agonist Response (% of Control), antagonist effect, 100 nM, single replicates 1st and 2nd"}},
  "note": "Like-named read-outs stand apart in the source and are kept apart here.",
  "data": [
    {"smiles": "Cc1ccc(-c2nnc(SCC(=O)Nc3nccs3)[nH]2)cc1", "note": "[Compound 9]", "values": [
      {"measurement": "remaining activity at 0.1 µM", "setting": "ADR2B; [1]", "result": 99.9, "unit": "%"},
      {"measurement": "inhibition at 0.1 µM", "setting": "ADR2B; [2]", "result": 0, "unit": "%"},
      {"measurement": "% Of control specific binding", "setting": "ADR2B; [3]", "result": 95.6, "unit": "%"},
      {"measurement": "remaining activity at 0.1 µM", "setting": "ADR2B; [4]", "result": 104, "unit": "%"},
      {"measurement": "remaining activity at 0.1 µM", "setting": "ADR3; [1]", "result": 99.1, "unit": "%"},
      {"measurement": "inhibition at 0.1 µM", "setting": "ADR3; [2]", "result": 1, "unit": "%"},
      {"measurement": "% Of control specific binding", "setting": "ADR3; [3]", "result": 95.7, "unit": "%"},
      {"measurement": "remaining activity at 0.1 µM", "setting": "ADR3; [4]", "result": 102, "unit": "%"},
      {"measurement": "remaining activity at 0.1 µM", "setting": "APJ; [1]", "result": 107, "unit": "%"},
      {"measurement": "inhibition at 0.1 µM", "setting": "APJ; [2]", "result": -7, "unit": "%"},
      {"measurement": "% Of control specific binding", "setting": "APJ; [3]", "result": 105.7, "unit": "%"},
      {"measurement": "remaining activity at 0.1 µM", "setting": "APJ; [4]", "result": 108, "unit": "%"},
      {"measurement": "remaining activity at 0.1 µM", "setting": "CCR1; [1]", "result": 108, "unit": "%"},
      {"measurement": "inhibition at 0.1 µM", "setting": "CCR1; [2]", "result": -8, "unit": "%"},
      {"measurement": "% Of control specific binding", "setting": "CCR1; [3]", "result": 109, "unit": "%"},
      {"measurement": "remaining activity at 0.1 µM", "setting": "CCR1; [4]", "result": 108, "unit": "%"},
      {"measurement": "remaining activity at 0.1 µM", "setting": "M5; [1]", "result": 97.4, "unit": "%"},
      {"measurement": "inhibition at 0.1 µM", "setting": "M5; [2]", "result": 3, "unit": "%"},
      {"measurement": "% Of control specific binding", "setting": "M5; [3]", "result": 105.1, "unit": "%"},
      {"measurement": "remaining activity at 0.1 µM", "setting": "M5; [4]", "result": 89.7, "unit": "%"},
      {"measurement": "Agonist Response (% of Control)", "setting": "CXCR5; [5]", "result": 99.7, "unit": "%"},
      {"measurement": "inhibition at 0.1 µM", "setting": "CXCR5; [6]", "result": 1.2, "unit": "%"},
      {"measurement": "activity at 0.1 µM", "setting": "CXCR5; [7]", "result": 102, "unit": "%"},
      {"measurement": "activity at 0.1 µM", "setting": "CXCR5; [8]", "result": 103, "unit": "%"},
      {"measurement": "Agonist Response (% of Control)", "setting": "CXCR6; [5]", "result": 103.1, "unit": "%"},
      {"measurement": "inhibition at 0.1 µM", "setting": "CXCR6; [6]", "result": -0.7, "unit": "%"},
      {"measurement": "activity at 0.1 µM", "setting": "CXCR6; [7]", "result": 104, "unit": "%"},
      {"measurement": "activity at 0.1 µM", "setting": "CXCR6; [8]", "result": 105, "unit": "%"}
    ]}
  ]
}
